Assay results from USRE39192E1, “Supplemented and unsupplemented tissue sealants, methods of their production and use” (American National Red Cross, priority 1990, dated 2006).

Key:
NIH 3T3 fibroblasts = assay: Cell chemotaxis assay (modified Boyden's chamber), NIH 3T3 fibroblasts; format: cell-based
Source text: NIH/3T3 fibroblasts at passage 126 were purchased from the American Type Culture Collection, Rockville, Md. Cultures from passages 129-133 were used in the chemotaxis assays. Cultures were propagated in DMEM supplemented with 10%. Calf serum and approximately 1% antibiotic antimycotic solution. Human dermal fibroblasts (HDFs) were purchased from Clonetics, Inc. (San Diego, Calif.) at passage 2. Cultures from passages 3-5 were used in the chemotaxis assays. Cultures were cultivated in DMEM supplemented with 20% FBS (Hyclone Laboratories, Inc., Logan, Utah) and approximately 1% antibiotic antimycotic solution (Gibco, Grand Island, N.Y.).
The procedure used to determine cellular chemotaxis was a combination of two known methodologies. A modification of Boyden's chamber was used as follows: Millicell-PCF (Millipore, Inc., Bedford, Mass.) (12.0 μm) 12.0 mm diameter inserts were placed in individual wells of 24 well plates to create the upper and lower chemotaxis chambers. Chemotaxis results were arrived at by performing checkerboard analysis for every combination of cells and growth factors. […] Briefly, cultures were trypsanized and placed in DMEM+0.1% Bovine Serum Albumin (BSA) (Sigma Chemical Co., St. Louis, Mo.) for approximately one hour at 37° C. in a 5% CO2 humidified chamber. Tow to 2.5×10^5 cells in 50 μl were added per insert to the upper chamber of the setup of the 24 well plates. Treatments were added as mentioned above. The assay was kept at 37° C. in a 5% CO2 humidified chamber for 4 hours. All combinations tested were performed in triplicate. At the end of 4 hours, the plates were removed from the incubator and the filters were stained following the protocol for staining included with the Millicell-PCT inserts. Briefly, the fluid surrounding the inside and outside of the Millicell-PCF inserts were removed. Three percent glutaraldehyde (Sigma Chemical Co., St. Louis, Mo.) was added to the outside and inside of the inserts for approximately 20 minutes. Following removal of the 3.0% glutaraldehyde, 0.5% Triton X-100 (E.M. Science, Cherry Hill, N.J.) was added for 5-7 minutes. On removal of the 0.5% Triton X-100, Fisher's Hematoxylin Solution Gill's Formulation (Fisher Scientific, Newark, Del.) No.1 was added for about 10 minutes. This solution was washed off in running distilled water for about 5 minutes. Using a cotton swab the upper side of the filter was swabbed to remove cells which had not migrated. Filters, were mounted lower side facing up on slides in Crystal Mount™ (Biomedia, Inc., Foster City, Calif.) solution and 10 random field were counted per slide both visually at 400× and at 200×using an Image Analyzing System to automate the enumeration of the cells on the underside of the filters.
As required, checkerboard analysis was carried out to determine random migration, and positive and negative chemotaxis. Growth factors were added to the upper and/or lower chambers to observe whether cells migrated towards the GF alone (chemotaxis), whether migration was random irrespective of whether the growth factor was added to the upper or lower well (chemokinesis) or whether cell migration was against the chemotactic gradient (negative chemotaxis).

NIH 3T3 cells = assay: 3H-thymidine incorporation assay with NIH 3T3 cells; format: cell-based; conditions: after incubation with 250 U/ml thrombin and 5 U/ml heparin for 0, 24 or 72 hours
Protocol: FIG. 2. Graph ShowingReissue the incorporation of ^3H-thymidine as a function of relative HBGF-1β concentration. Samples of the HBGF-1β were incubated, as described in FIG. 1 and Example 2, in the presence of 250 U/ml thrombin and 5 U/ml heparin for 0, 24 or 72 hours. Dilutions of these samples were then added to NHI 3T3 cells, which were plated as described in Example 3. CPM is plotted v. HBGF-1 concentration.
The biological activity of HBGF-1 in the incubation mixture that contained 5 U/ml of heparin, and was described in Example 2, was measuring using an ^3H-thymidine incorporation assay with NIH 3T3 cells.
NIH 3T3 cells were introduced into 96 well plates and were incubated at 37° C. under starvation conditions in Dulbecco's Modified Medium (DMEM; GIBCO, Grand Island, N.Y.) with 0.5% […] bovine serum (BCS; GIBCO, Grand Island, N.Y.) until the cells reached 30 to 50% confluence. Two days later, varying dilutions of HBGF-1 from the samples prepared in Example 2 were added to each well without changing the medium. Diluent (incubation buffer) was added in place of growth factor for the negative controls and DMEM with 10% BCS, which contains growth factors needed for growth, was added in place of the HBGF-1 sample for the positive controls. […]

Substance: HBGF-1: heparin binding growth factor-1, also known as ECGF and FGF-1; recombinant HBGF-1β expressed in E. coli
- checkerboard analysis (NIH 3T3 fibroblasts): chemotactic
- concentration of maximum stimulation of migration (NIH 3T3 fibroblasts; FGF-1 in the presence of 10 U/ml heparin): 10 ng/mL
- migrated cells (checkerboard analysis) (NIH 3T3 fibroblasts; lower 0 ng/ml, upper 1 ng/ml): 53.93 +/− 4.152
- migrated cells (checkerboard analysis) (NIH 3T3 fibroblasts; lower 0 ng/ml, upper 5 ng/ml): 27.27 +/− 3.873
- migrated cells (checkerboard analysis) (NIH 3T3 fibroblasts; lower 0 ng/ml, upper 10 ng/ml): 25.96 +/− 4.151
- migrated cells (checkerboard analysis) (NIH 3T3 fibroblasts; lower 1 ng/ml, upper 0 ng/ml): 59.46 +/− 6.89
- migrated cells (checkerboard analysis) (NIH 3T3 fibroblasts; lower 1 ng/ml, upper 1 ng/ml): 36.9 +/− 5.728
- migrated cells (checkerboard analysis) (NIH 3T3 fibroblasts; lower 1 ng/ml, upper 5 ng/ml): 22.1 +/− 9.232
- migrated cells (checkerboard analysis) (NIH 3T3 fibroblasts; lower 1 ng/ml, upper 10 ng/ml): 35.86 +/− 2.074
- migrated cells (checkerboard analysis) (NIH 3T3 fibroblasts; lower 5 ng/ml, upper 0 ng/ml): 64.867 +/− 1.75
- migrated cells (checkerboard analysis) (NIH 3T3 fibroblasts; lower 5 ng/ml, upper 1 ng/ml): 41.44 +/− 1.866
- migrated cells (checkerboard analysis) (NIH 3T3 fibroblasts; lower 5 ng/ml, upper 5 ng/ml): 24.84 +/− 4.337
- migrated cells (checkerboard analysis) (NIH 3T3 fibroblasts; lower 5 ng/ml, upper 10 ng/ml): 41.6 +/− 6.717
- migrated cells (checkerboard analysis) (NIH 3T3 fibroblasts; lower 10 ng/ml, upper 0 ng/ml): 70.83 +/− 2.752
- migrated cells (checkerboard analysis) (NIH 3T3 fibroblasts; lower 10 ng/ml, upper 1 ng/ml): 39.73 +/− 2.428
- migrated cells (checkerboard analysis) (NIH 3T3 fibroblasts; lower 10 ng/ml, upper 5 ng/ml): 39.73 +/− 2.428
- migrated cells (checkerboard analysis) (NIH 3T3 fibroblasts; lower 10 ng/ml, upper 10 ng/ml): 41.83 +/− 6.879
- biological activity (3H-thymidine incorporation) (NIH 3T3 cells): retained its biological activity
